88 compounds from the COVID Moonshot data (paper PMC7615835) can be followed below.

Where “and” joins values, the source holds several entries; their conditions need not be identical. Identical values can stand only once. Bounds are passed on as bounds.

This test concerns the target SARS-CoV-2 Main Protease (SARS-CoV-2) (UniProt P0DTD1).
`O=C(Cc1cccc(Cl)c1)Nc1nnn[nH]1` returned a half-inhibitory concentration (IC50) of 45300 nM.

`O=C(Cc1cc(Cl)cc(N2CCN(c3ccc(Br)cn3)CC2)c1)Nc1cncc2ccccc12` yielded a half-inhibitory concentration (IC50) of 3170 nM. Next, `O=C(Cc1cc(Cl)cc(Nc2cc(Cl)ccc2OC(F)(F)F)c1)Nc1cncc2ccccc12`: 2120 nM; `Cc1c(Cl)ccc2c1[C@H](C(=O)Nc1cncc3ccccc13)CCO2` (stereo in doubt): 3670 nM. Compound `N#Cc1ccc(Cl)c(Nc2cc(Cl)cc(CC(=O)Nc3cncc4ccccc34)c2)c1` showed an IC50 of 1990 nM. This IC50 is about 1.8-fold lower than that of the compound before. The compound `CNS(=O)(=O)c1cc2c(cc1OCc1ccccc1)OCO2` registered a 50% inhibitory concentration (IC50) above 99500 nM. `CC(C)(C)c1ccc(N(C(=O)c2nnc(O)cc2O)C(C(=O)NCCc2cccc(F)c2)c2cccnc2)cc1` (stereo not drawn) showed an IC50 above 99500 nM. In turn, `COC1CCC2OCCN(C(=O)c3ccc4nc[nH]c4c3)C2C1` (stereo not drawn) yielded an IC50 above 99500 nM. The compound `CNC(=O)c1ccc2cncc(NC(=O)C3CN(S(=O)(=O)CC4(C)CS(=O)(=O)C4)Cc4ccc(Cl)cc43)c2c1` (stereo not drawn) showed an IC50 of 110 nM. Take `O=C(NCCc1cccc(F)c1)C(c1cccnc1)N(C(=O)c1cocn1)c1ccc2nc(C(F)(F)F)[nH]c2c1` (stereo not drawn): the IC50 came to 77600 nM. Compared with the last compound, the IC50 is about 710-fold higher. Compound `Cc1ccc(N(Cc2cscn2)C(=O)Cc2cncc3ccccc23)cc1` displayed an IC50 of 8090 nM. Against the preceding compound, the IC50 is about 9.6-fold lower. As for `CC(C)(C)c1ccc(N(C(=O)c2ccco2)C(C(=O)NCCc2cccc(F)c2)c2cnc3ccccn23)cc1` (stereo not drawn), the IC50 was found to be 37500 nM. This IC50 is about 4.6-fold higher than that of the compound before. For `CCCCc1nc(-c2nccn2Cc2ccoc2)c[nH]1`, the IC50 came to 14300 nM.

The compound `C=CC(=O)N(Cc1cccc(Cl)c1)C(C(=O)NCCc1cccc(F)c1)c1cnccc1C` (stereo not drawn) had an IC50 above 99500 nM. `NC(=O)c1ccc2c(NC(=O)Cc3cccc(Cl)c3)cncc2c1` showed an IC50 of 1590 nM. As for `O=C(Cc1cc(Cl)cc(Nc2ccc(OCc3ccccn3)c(Cl)c2)c1)Nc1cncc2ccccc12`, the IC50 worked out at 2090 nM. This IC50 and that of the compound before are within 1.5-fold of each other.

As for `CCN(Cc1ccc(F)cc1)c1cc(Cl)cc(CC(=O)Nc2cncc3ccccc23)c1`, the IC50 is above 99500 nM. In turn, `COc1cc2c(cc1OC)CN(c1cc(Cl)cc(CC(=O)Nc3cncc4ccccc34)c1)CC2` displayed an IC50 of 1650 nM. With `Cc1ccncc1NC(=O)CCc1cccc(Cl)c1`, the IC50 is above 99500 nM.

Turning to `O=C(Cc1cc(Cl)cc(Nc2cc(Cl)nc(Cl)n2)c1)Nc1cncc2ccccc12`, the IC50 came to 1830 nM. `Cn1c(C(NC(=O)Cc2cc3ccccc3[nH]2)c2cccc(Cl)c2)nc2ccccc21` (stereo not drawn): the IC50 was above 99500 nM. In turn, `Cc1nn(C)c2nc(Cl)cc(NNC(=O)c3ccnc4[nH]nnc34)c12` displayed an IC50 above 99500 nM. On to `O=C(Nc1cnccc1Cl)c1cc(Cl)ccc1O`, for which the IC50 was 24200 nM. `O=C(CCl)N1CCCc2cc(NCc3ccc(F)cc3Cl)ccc21` came in with an IC50 of 19300 nM. The compound `C=CC(=O)NCc1ccccc1S(=O)(=O)NC` displayed a half-maximal inhibitory concentration (IC50) above 99500 nM. `O=C(NCCc1cccc(F)c1)C(c1cccnc1)N(Cc1ccccc1)C(=O)c1cnc[nH]1` (stereo not drawn) had an IC50 above 99000 nM. As for `CCC(=O)Nc1ccc(N(C)C(=O)Cn2nnc3ccccc32)cc1`, the concentration for half-maximal inhibition (IC50) is above 99500 nM. `Cn1cc(C(=O)N(c2ccc(C(C)(C)C)cc2)C(C(=O)NCCc2cccc(F)c2)c2cccnc2)ncc1=O` (stereo not drawn) displayed an IC50 above 99500 nM.

`N#CC1(CS(=O)(=O)N2Cc3ccc(Cl)cc3C(C(=O)Nc3cncc4c[nH]nc34)C2)CC1` (stereo not drawn) registered an IC50 of 1050 nM. The compound `CN1CCN(c2ccccc2Nc2cc(Cl)cc(CC(=O)Nc3cncc4ccccc34)c2)CC1` returned an IC50 of 2090 nM. The result for `O=C(Cc1cc(Cl)cc(Nc2nnc(C(F)(F)F)s2)c1)Nc1cncc2ccccc12` reads 2440 nM; that for `O=C(Cc1cc(Cl)cc(N2CCN(c3ccc(O)cc3)CC2)c1)Nc1cncc2ccccc12`, 2190 nM; that for `Cc1nnc(CNc2ccc3nnc(-c4ccccc4)n3n2)o1`, above 99500 nM. On to `C#CCCCC(=O)N[C@H](C(=O)N[C@H](CC(C)C)C(=O)NN(CCC(N)=O)C(=O)/C=C/C(=O)OC)C(C)(C)C` (stereo in doubt), for which the IC50 is < 50 nM and 44 nM. For `Cc1ccncc1NC(=O)CCc1cccc(F)c1`, the IC50 was 58500 nM. Consider `COc1ccc2c(NC(=O)C3CCOc4ccc(Cl)cc43)[nH]nc2c1` (stereo not drawn), for which the IC50 is above 99500 nM. The result for `O=C(CCl)NC(CO)c1cccc(Cl)c1` (stereo not drawn) reads above 99000 nM.

On to `Cn1ncc2cc(C(=O)NNc3nc4cccnc4s3)cnc21`, for which the IC50 was above 99500 nM.

The compound `CC(NC(=O)CCl)c1cc(F)cc(Cl)c1` (stereo not drawn) returned an IC50 of 27900 nM.

For the compound `O=C(NC1(C(=O)Nc2cncc3ccccc23)CCOc2ccc(Cl)cc21)C1CCC(C(=O)N2CCCC2)O1` (stereo not drawn), the IC50 turned out to be 2810 nM. In the case of `O=C(Cc1cc(Cl)cc(Nc2ccccc2)c1)Nc1cncc2ccccc12`, the concentration for half-maximal inhibition (IC50) is above 9950 nM. As for `Cc1noc(C)c1S(=O)(=O)N1CCN(C(=O)CCl)CC1`, the IC50 came to 4060 nM.

On to `O=C(NCCO)c1ccc(N(C(=O)c2cocn2)C(C(=O)NCCc2cccc(F)c2)c2cccnc2)cc1` (stereo not drawn), for which the IC50 was above 99500 nM. Next, `OCCn1c(CSc2nc3ccccc3o2)nc2ccc(Cl)cc21`: 327 nM; `COc1cc(Br)ccc1Nc1cc(Cl)cc(CC(=O)Nc2cncc3ccccc23)c1`: 1390 nM; `O=C(Nc1cncc2ccncc12)C1CCOc2cc(F)c(Cl)cc21` (stereo not drawn): 1100 nM.

Compound `CCOC(=O)c1ccc(NC(=O)CC2SC(=O)N(c3ccccc3)C2=O)cc1` (stereo not drawn) registered an IC50 of 2400 nM. This IC50 is about 2.2-fold higher than that of the compound before. In turn, `O=S(=O)(Nc1cc2c(cc1OCc1ccccc1)OCO2)c1ccccc1` came in with an IC50 above 99500 nM.

As to `CNC(=O)C1(N2CC3(CCN(c4cncc5cc(S(C)(=O)=O)ccc45)C3=O)c3cc(Cl)ccc3C2=O)CC1` (stereo not drawn), the IC50 was 265 nM. `CN(c1cc(Cl)cc(CC(=O)Nc2cncc3ccccc23)c1)[C@@H]1CCN(Cc2ccccc2)C1` (stereo in doubt) yielded an IC50 of 2040 nM.

With `O=C(NNC(=O)c1cccc(-n2nccc2C(F)(F)F)c1)OCc1ccccc1`, the IC50 was above 99500 nM.

With `Cc1nc(Br)ccc1Nc1cc(Cl)cc(CC(=O)Nc2cncc3ccccc23)c1`, the 50% inhibitory concentration (IC50) worked out at 2820 nM.

`CN(CCO)S(=O)(=O)N1Cc2ccc(Cl)cc2C2(CCN(c3cncc4ccccc34)C2=O)C1` (stereo not drawn) displayed an IC50 of 699 nM. Compared with the last compound, the IC50 is about 4-fold lower. For the compound `Cc1ccncc1C(C(=O)NCCc1cccc(F)c1)N(C(=O)c1ccco1)c1ccc(C(C)(C)C)cc1` (stereo not drawn), the IC50 was determined as 112 nM. As to `CC(NC(=O)CN)(C(=O)Nc1cncc2ccccc12)c1ccc(Cl)c(Cl)c1` (stereo not drawn), the IC50 was 6210 nM and 1840 nM. Next, `COC[C@]1(C(=O)Nc2cncc3ccccc23)CCOc2cc(Cl)c(Cl)cc21` (stereo in doubt): 2380 nM and 4360 nM. For `O=C(Cc1cc(Cl)cc(Nc2ccc3scnc3c2)c1)Nc1cncc2ccccc12`, the IC50 is 2220 nM. In turn, `O=C(NCc1ccc(Cl)cc1CN1CCN(C(=O)CCl)CC1)[C@@H]1CCCOC1` (stereo in doubt) registered an IC50 of 12100 nM.

`O=C(CN1CC(C(=O)Nc2cncc3cc(F)ccc23)c2cc(Cl)ccc2C1=O)NC1COC1` (stereo not drawn) displayed an IC50 of 1010 nM. `O=C1CCCN(S(=O)(=O)c2cccs2)CC1` yielded an IC50 above 99500 nM. On to `Cc1cc2c(N)nc(=O)n(CC(=O)Nc3cccc(Cl)c3)c2s1`, for which the IC50 was above 99500 nM. `CCCOc1ccc(Nc2cc(Cl)cc(CC(=O)Nc3cncc4ccccc34)c2)cc1` showed an IC50 of 2920 nM. In other words, the single-digit micromolar range.

Take `O=C(Cc1cccc(Cl)c1)Nc1cncn1-c1ccccc1`: the IC50 is above 99500 nM. `O=C(Cc1ccc(Cl)cc1)Nc1cncc2ccccc12` gave an IC50 of 23700 nM. With `Cc1ccc(NC2=C(c3ccccc3)C(=O)N(Cc3cccnc3)C2=O)cc1C`, the IC50 was above 99500 nM. Take `Cc1ccc(S(=O)(=O)N2CCN(C(=O)CCl)C[C@H]2C(=O)NCc2ccccc2)cc1` (stereo in doubt): the IC50 was 3650 nM. For the compound `O=C(Cc1cc(Cl)cc(Nc2nc3c(Cl)cccc3s2)c1)Nc1cncc2ccccc12`, the IC50 turned out to be 2110 nM. Compared with the last compound, the IC50 is about 1.7-fold lower. The compound `O=C(Nc1cncc2ccccc12)C1CN(C(=O)C2CC2)Cc2ccc(Cl)cc21` (stereo not drawn) registered an IC50 of 487 nM. The compound `Cc1ccc(S(=O)(=O)N2CCN(C(=O)CCl)C[C@H]2C(=O)NCCc2ccccc2)cc1` (stereo in doubt) showed an IC50 of 11800 nM.

In turn, `N#Cc1cccc(NC(=O)[C@@H]2CN(C(=O)CCl)CCN2S(=O)(=O)c2ccsc2)c1` (stereo in doubt) showed an IC50 of 416 nM. `Cc1ccc2ncc(NC(=O)Cc3cccc(Cl)c3)n2c1`: the IC50 was determined as 9010 nM. As to `CCOC(=O)c1cccc(NC(=O)[C@@H]2CN(C(=O)CCl)CCN2S(=O)(=O)c2ccsc2)c1` (stereo in doubt), the IC50 worked out at 459 nM. Regarding `C=CC(=O)Nc1cc(C(=O)NC[C@H](Cc2ccccc2)c2ccccn2)ccc1O` (stereo in doubt), the IC50 was above 99500 nM. For the compound `C=CC(=O)N(c1cc(C(C)(C)C)on1)C(C(=O)NCCc1cccc(F)c1)c1cncc(C#N)c1` (stereo not drawn), the concentration for half-maximal inhibition (IC50) was above 99500 nM. For the compound `CNS(=O)(=O)N1CCc2ccc(Cl)cc2C1C(=O)Nc1cncc2ccccc12` (stereo not drawn), the IC50 was found to be 1550 nM. The compound `Cc1cc2ncc(C(=O)Nc3ccc4oc(C)nc4c3)c(C)n2n1` yielded an IC50 above 99500 nM.

`CNC(=O)CN1CC(C(=O)Nc2cncc3cccc(Cl)c23)c2cc(Cl)ccc2C1=O` (stereo not drawn) registered an IC50 of 91.7 nM.

As for `N#Cc1cnn(C(=O)c2cccs2)c1C1CC1`, the IC50 worked out at 3240 nM. Next, `O=C(Cc1cc(Cl)cc(NC[C@H](O)c2ccc(O)cc2)c1)Nc1cncc2ccccc12` (stereo in doubt): 1640 nM; `COc1ccccc1OCCNC(=O)c1cc(=O)[nH]c2cc(F)ccc12`: above 99500 nM.

`C=CS(=O)(=O)N1CCN(S(=O)(=O)c2ccccc2)CC1`: the IC50 was above 99500 nM.

Compound `CC(C)(C)c1ccc(N(C(=O)c2cocn2)C(C(=O)NC2CCOCC2)c2cccnc2)cc1` (stereo not drawn) had an IC50 of 3900 nM. As for `CC(C)c1ccncc1NC(=O)Cc1cccc(Cl)c1`, the IC50 amounted to 19500 nM. Regarding `O=C(Cc1cc(Cl)cc(Nc2ccc(-n3cccn3)cc2)c1)Nc1cncc2ccccc12`, the IC50 was found to be 2120 nM. This IC50 lies about 9.2-fold lower than the previous one. Next, `CN(C)CCCOc1ccc2cncc(N3CCC4(CN(S(=O)(=O)CC5(C#N)CC5)Cc5ccc(Cl)cc54)C3=O)c2c1` (stereo not drawn): 149 nM; `CS(=O)(=O)c1ccc2c(NC(=O)C3CN(CC(=O)NCC(F)(F)F)C(=O)c4ccc(Cl)cc43)cncc2c1` (stereo not drawn): 287 nM. The compound `COc1cc2nc(Cl)nc(Nc3cc(Cl)cc(CC(=O)Nc4cncc5ccccc45)c3)c2cc1OC` yielded an IC50 of 2360 nM. The compound `O=C(Nc1cncc2ccccc12)C1CN(C(=O)c2ncco2)Cc2ccc(Cl)cc21` (stereo not drawn) registered an IC50 of 918 nM.

The term IC50 denotes the concentration needed to halve the response being measured. Read a high IC50 as a need for much substance.
